These are literature values, as cited in patent publication US20190037897A1, “AMORPHOUS COOLER DISPERSION COMPOSITION” (International Flavors & Fragrances Inc., priority 2016, published 2019).

For the data set the following is noted: compared to menthol (as 100).
Regarding `COc1ccc(NC(=O)[C@@H]2C[C@H](C)CC[C@H]2C(C)C)cc1` [WS-12, (1R,2S,5R)-N-(4-Methoxyphenyl)-p-menthanecarboxamide], the relative cooling strength was 150.

Consider “Ethyl 3-(p-menthane-3-carboxamido)acetate [WS-5]”, for which the relative cooling strength is 400. As for `CCNC(=O)C1CC(C)CCC1C(C)C` (stereo not shown) [WS-3, N-Ethyl-p-menthane-3-carboxamide], the relative cooling strength is listed as 150. With `CC1CCC(C(C)C)C(O)C1` (stereo not shown) [menthol], the relative cooling strength is reported as 100.
